Values of other authors as cited in patent publication US10172912B2, “Chemical induction of lactation in prepubescent non-human mammals” (priority 2009, dated 2019).

How the values were obtained:
gravid horses = settings: for udder development: gravid equine mares with endophyte-infected ryegrass toxicity, thirty days before foaling
non-pregnant mares = settings: altrenogest/estradiol pessary week 1, estradiol pessary week 2 with twice daily drug

| bound to plasma proteins (plasma proteins) | SMILES | udder development (gravid horses) | lactation (gravid horses; gravid horses with endophyte-infected ryegrass toxicity, administration for at least eighteen days) | induced lactation volume (non-pregnant mares) [liter per mare/day] |
| --- | --- | --- | --- | --- |
| 91-93% | O=c1[nH]c2ccccc2n1CCCN1CCC(n2c(=O)[nH]c3cc(Cl)ccc32)CC1 [Domperidone] | increases udder development | increase lactation |  |
|  | CCN1CCCC1CNC(=O)c1cc(S(N)(=O)=O)ccc1OC (centres unmarked) [sulpiride] | increases udder development |  | ~1 |
